# Measurements taken from patent publication US8063065B2, “Azaindazole compounds as CCR1 receptor antagonists” (Boehringer Ingelheim International GmbH, priority 2008, dated 2011).
# Target: T1, CCR1 (Homo sapiens, UniProt P32246)
# T1 sequence (P32246 1-355): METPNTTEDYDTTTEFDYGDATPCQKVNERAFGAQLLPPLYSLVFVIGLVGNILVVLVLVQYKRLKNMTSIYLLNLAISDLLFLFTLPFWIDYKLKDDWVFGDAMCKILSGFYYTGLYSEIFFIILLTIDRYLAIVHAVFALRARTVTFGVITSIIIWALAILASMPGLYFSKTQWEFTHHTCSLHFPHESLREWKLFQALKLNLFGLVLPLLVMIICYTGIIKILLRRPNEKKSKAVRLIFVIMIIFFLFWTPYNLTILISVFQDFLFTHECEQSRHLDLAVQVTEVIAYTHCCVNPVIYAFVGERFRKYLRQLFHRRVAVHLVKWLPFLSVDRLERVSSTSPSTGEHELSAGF
# Assay: Method B: calcium flux in CCR1 transfected cells (Calcium 4 dye, […] FDSS6000), block of the CCR1/MIP-1α interaction
# Type: cell-based
# Settings: Method B: Calcium 4 dye, MIP-1alpha at EC80
# Procedure: Compounds are assessed for the ability to block the interaction of CCR1 and MIP-1α in a functional cellular assay measuring calcium flux in CCR1 transfected cells.
# Method B: Non-adherent cells purchased from Chemicon Corporation (HTS005C), stably expressing recombinant CCR1 and G-alpha-16 are grown in RPMI 1640 medium (Mediatech 10-080-CM) supplemented with 10% FBS, 0.4 mg/mL Geneticin and penicillin/streptomycin. On the day of the assay, the cells are loaded with Calcium 4 dye (Molecular Devices R7448) with Probenecid (Invitrogen P346400) at 8E5 cells/mL for 1 hour at room temperature. After 1 hour, they are seeded in a 384-well tissue culture-treated plate at a density of 20,000 cells/well. Appropriately diluted test compound is added to the well to achieve a top concentration of 3,000 nM (diluted 4-fold with 10 doses total). The final concentration of DMSO is 1%. The buffer is HBSS (Invitrogen 14025) with 20 mM HEPES at pH 7.4. The cells incubate 30 minutes at 37 C and then 30 minutes at room temperature. The plates are transferred to the […] FDSS6000 where MIP-1alpha in 1% BSA is added at the EC80 final concentration. All plates must be read within 4 hours of the start of dye-loading. Wells+/−MIP-1alpha containing diluted DMSO instead of compound serve as the controls. Data are analyzed using Activity Base software.
row,Structure (SMILES),IC50
1,"CCC[C@@H](NC(=O)c1cncc2c1cnn2-c1ccc(F)cc1)c1ccc(O)c(S(C)(=O)=O)c1 [1-(4-Fluorophenyl)-1H-pyrazolo[3,4-c]pyridine-4-carboxylic acid [(R)-1-(4-hydroxy-3-methanesulfonyl-phenyl)-butyl]-amide]",0.2 nM
2,"CC[C@H](NC(=O)c1cncc2c1cnn2-c1ccc(F)cc1)c1ccc(S(=O)(=O)CC)nc1 [1-(4-Fluorophenyl)-1H-pyrazolo[3,4-c]pyridine-4-carboxylic acid [(S)-1-(6-ethanesulfonyl-pyridin-3-yl)-propyl]-amide]",0.3 nM
3,"CCC(C)(NC(=O)c1cncc2c1cnn2-c1ccc(F)cc1)c1ccnc(S(C)(=O)=O)c1 (centres unmarked) [1-(4-Fluorophenyl)-1H-pyrazolo[3,4-c]pyridine-4-carboxylic acid [1-(2-methanesulfonyl-pyridin-4-yl)-1-methyl-propyl]-amide]",6 nM
4,"CS(=O)(=O)c1cc(CNC(=O)c2cncc3c2cnn3-c2ccc(F)cc2)cc(Br)n1 [1-(4-Fluorophenyl)-1H-pyrazolo[3,4-c]pyridine-4-carboxylic acid (2-bromo-6-methanesulfonyl-pyridin-4-ylmethyl)-amide]",1 nM
5,"CCC(NC(=O)c1cncc2c1cnn2-c1ccc(F)cc1)C1CCN(S(C)(=O)=O)CC1 (centres unmarked) [1-(4-Fluorophenyl)-1H-pyrazolo[3,4-c]pyridine-4-carboxylic acid [1-(1-methanesulfonyl-piperidin-4-yl)-propyl]-amide]",2 nM
6,"CC(C)(O)CNc1cc(CNC(=O)c2cncc3c2cnn3-c2ccc(F)cc2)cc(S(C)(=O)=O)n1 [1-(4-Fluorophenyl)-1H-pyrazolo[3,4-c]pyridine-4-carboxylic acid [2-(2-hydroxy-2-methyl-propylamino)-6-methanesulfonyl-pyridin-4-ylmethyl]-amide]",0.7 nM
7,"CC[C@H](NC(=O)c1cncc2c1cnn2-c1ccc(F)cc1)c1ccc(S(=O)(=O)NC2CC2)nc1 [1-(4-Fluorophenyl)-1H-pyrazolo[3,4-c]pyridine-4-carboxylic acid [(S)-1-(6-cyclopropylsulfamoyl-pyridin-3-yl)-propyl]-amide]",0.2 nM
8,"CCC(C)(NC(=O)c1cncc2c1cnn2-c1ccc(F)cc1)c1ccnc(Br)c1 (centres unmarked) [1-(4-Fluorophenyl)-1H-pyrazolo[3,4-c]pyridine-4-carboxylic acid [1-(2-bromo-pyridin-4-yl)-1-methyl-propyl]-amide]",11 nM
9,"CNc1cc([C@H](C)NC(=O)c2cncc3c2cnn3-c2ccc(F)cc2)cc(S(C)(=O)=O)n1 [1-(4-Fluorophenyl)-1H-pyrazolo[3,4-c]pyridine-4-carboxylic acid [(S)-1-(2-methanesulfonyl-6-methylamino-pyridin-4-yl)-ethyl]-amide]",0.4 nM
10,"CC[C@H](NC(=O)c1cncc2c1cnn2-c1ccc(F)cc1)c1ccnc([S+](C)[O-])c1 (stereo partly drawn) [1-(4-Fluorophenyl)-1H-pyrazolo[3,4-c]pyridine-4-carboxylic acid [(S)-1-(2-methanesulfinyl-pyridin-4-yl)-propyl]-amide]",0.5 nM
11,"O=C(NCc1cnc(Br)s1)c1cncc2c1cnn2-c1ccc(F)cc1 [1-(4-Fluorophenyl)-1H-pyrazolo[3,4-c]pyridine-4-carboxylic acid (2-bromo-thiazol-5-ylmethyl)-amide]",25 nM
12,"CC[C@H](NC(=O)c1cncc2c1cnn2-c1ccc(F)cc1)c1cc(OC)nc(S(C)(=O)=O)c1 [1-(4-Fluorophenyl)-1H-pyrazolo[3,4-c]pyridine-4-carboxylic acid [(S)-1-(2-methanesulfonyl-6-methoxy-pyridin-4-yl)-propyl]-amide]",0.1 nM
13,"CC[C@H](NC(=O)c1cncc2c1cnn2-c1ccc(F)cc1)c1nc(C(=O)OC)cs1 [2-((S)-1-{[1-(4-Fluorophenyl)-1H-pyrazolo[3,4-c]pyridine-4-carbonyl]-amino}-propyl)-thiazole-4-carboxylic acid methyl ester]",5 nM
14,"CCC[C@@H](NC(=O)c1cncc2c1cnn2-c1ccc(F)cc1)c1ccc(OC)c(S(C)(=O)=O)c1 [1-(4-Fluorophenyl)-1H-pyrazolo[3,4-c]pyridine-4-carboxylic acid [(R)-1-(3-methanesulfonyl-4-methoxy-phenyl)-butyl]-amide]",0.2 nM
15,"CC[C@H](NC(=O)c1cncc2c1cnn2-c1ccc(F)cc1)c1cnc(S(C)(=O)=O)o1 [1-(4-Fluorophenyl)-1H-pyrazolo[3,4-c]pyridine-4-carboxylic acid [(S)-1-(2-methanesulfonyl-oxazol-5-yl)-propyl]-amide]",3 nM
16,"CC[C@H](NC(=O)c1cncc2c1cnn2-c1ccc(F)cc1)c1ccnc(C(C)(C)O)c1 [1-(4-Fluorophenyl)-1H-pyrazolo[3,4-c]pyridine-4-carboxylic acid {(S)-1-[2-(1-hydroxy-1-methyl-ethyl)-pyridin-4-yl]-propyl}-amide]",0.5 nM
17,"CC[C@H](NC(=O)c1cncc2c1cnn2-c1ccc(F)cc1)c1cc(S(C)(=O)=O)c[nH]1 [1-(4-Fluorophenyl)-1H-pyrazolo[3,4-c]pyridine-4-carboxylic acid [(S)-1-(4-methanesulfonyl-1H-pyrrol-2-yl)-propyl]-amide]",1 nM
18,"COC[C@H](NC(=O)c1cncc2c1cnn2-c1ccc(F)cc1)c1ccnc(Br)c1 [1-(4-Fluorophenyl)-1H-pyrazolo[3,4-c]pyridine-4-carboxylic acid [(R)-1-(2-bromopyridin-4-yl)-2-methoxy-ethyl]-amide]",0.5 nM

# Now from value to molecule:
row,IC50,Structure (SMILES)
1,12 nM,"CC[C@H](NC(=O)c1cncc2c1cnn2-c1ccc(F)cc1)c1ccnc(N2CCS(=O)(=O)CC2)c1 [1-(4-Fluorophenyl)-1H-pyrazolo[3,4-c]pyridine-4-carboxylic acid {(S)-1-[2-(1,1-dioxo-1λ6-thiomorpholin-4-yl)-pyridin-4-yl]-propyl}-amide]"
2,8 nM,"O=C(NCc1cnc(N2CCOCC2)nc1)c1cncc2c1cnn2-c1ccc(F)cc1 [1-(4-Fluorophenyl)-1H-pyrazolo[3,4-c]pyridine-4-carboxylic acid (2-morpholin-4-yl-pyrimidin-5-ylmethyl)-amide]"
3,0.3 nM,"CC[C@H](NC(=O)c1cncc2c1cnn2-c1ccc(F)cc1)c1cccc(S(C)(=O)=O)c1 [1-(4-Fluorophenyl)-1H-pyrazolo[3,4-c]pyridine-4-carboxylic acid [(S)-1-(3-methanesulfonyl-phenyl)-propyl]-amide]"
4,8 nM,"CC[C@H](NC(=O)c1cncc2c1cnn2-c1ccc(F)cc1)c1nc(C(N)=O)cs1 [1-(4-Fluorophenyl)-1H-pyrazolo[3,4-c]pyridine-4-carboxylic acid [(S)-1-(4-carbamoyl-thiazol-2-yl)-propyl]-amide]"
5,38 nM,"C[C@H](NC(=O)c1cncc2c1cnn2-c1ccc(F)cc1)c1ccnc(S(=O)(=O)CCCO)c1 [1-(4-Fluorophenyl)-1H-pyrazolo[3,4-c]pyridine-4-carboxylic acid {(S)-1-[2-(3-hydroxy-propane-1-sulfonyl)-pyridin-4-yl]-ethyl}-amide]"
6,3 nM,"CC[C@H](NC(=O)c1nccc2c1cnn2-c1ccc(F)cc1)c1ccnc(S(C)(=O)=O)c1 [1-(4-Fluorophenyl)-1H-pyrazolo[4,3-c]pyridine-4-carboxylic acid [(S)-1-(2-methanesulfonyl-pyridin-4-yl)-propyl]-amide]"
7,32 nM,"C=CC[C@H](NC(=O)c1cncc2c1cnn2-c1ccc(F)cc1)c1ccncc1 [1-(4-Fluorophenyl)-1H-pyrazolo[3,4-c]pyridine-4-carboxylic acid ((S)-1-pyridin-4-yl-but-3-enyl)-amide]"
8,11 nM,"CC[C@H](NC(=O)c1cncc2c1cnn2-c1ccc(F)cc1)c1cnn(C)c1 [1-(4-Fluorophenyl)-1H-pyrazolo[3,4-c]pyridine-4-carboxylic acid [(S)-1-(1-methyl-1H-pyrazol-4-yl)-propyl]-amide]"
9,0.2 nM,"CC[C@@H](NC(=O)c1cncc2c1cnn2-c1ccc(F)cc1)c1ccc(OC)c(S(C)(=O)=O)c1 [1-(4-Fluorophenyl)-1H-pyrazolo[3,4-c]pyridine-4-carboxylic acid [(R)-1-(3-methanesulfonyl-4-methoxy-phenyl)-propyl]-amide]"
10,3 nM,"CC[C@H](NC(=O)c1cncc2c1cnn2-c1ccc(F)cc1)c1nc(C(=O)NC)cs1 [1-(4-Fluorophenyl)-1H-pyrazolo[3,4-c]pyridine-4-carboxylic acid [(S)-1-(4-methylcarbamoyl-thiazol-2-yl)-propyl]-amide]"
11,26 nM,"CCC(NC(=O)c1cncc2c1cnn2-c1ccc(F)cc1)c1nc(C(=O)NCC(=O)OC)c(C)o1 (centres unmarked) [{[2-(1-{[1-(4-Fluorophenyl)-1H-pyrazolo[3,4-c]pyridine-4-carbonyl]-amino}-propyl)-5-methyl-oxazole-4-carbonyl]-amino}-acetic acid methyl ester]"
